Source: US12721892B2, “Methods and compositions for chimeric antigen receptor targeting cancer cells” (The University of North Carolina at Chapel Hill, priority 2019, dated 2026)
Entries after “also recorded” stand apart in the source; their conditions may differ.

Key:
[1] = tested on: CAR-CD3ζ phosphorylation; test: Western blot of CAR-CD3ζ and proximal signaling phosphorylation; type: cell-based, human
Description: For western blot assays, protein lysate was normalized according to the amount of CAR expression and resolved on 4%-15% SDS polyacrylamide gel electrophoresis gels (SDS-PAGE, Bio-Rad). After protein transfer onto Polyvinylidene fluoride membranes (Bio-Rad), membranes were blocked in 5% non-fat milk in TBS-T and incubated with primary and secondary Abs in TBS-T with 1% milk. The following Abs were used: anti-CD3pY83 and anti-CD3pY142 (Abcam), anti-ZAP70pY319, anti-ZAP70, anti-LATpY191, anti-LAT, anti-LCK, anti-THEMIS, anti-SHP1 and anti-HA tag (Cell Signaling Technology), anti-CD3ζ, anti-FKBP, anti-β-actin (Santa Cruz), anti-FLAG (M2) (Sigma) and horseradish peroxidase conjugated secondary Abs (Goat-anti-mouse, Goat-anti-Rabbit from Thermo Scientific). Membranes were developed with SuperSignal West Femto Maximum Sensitivity Substrate (Thermo Scientific) on a Gel station (Bio-Rad).

[2] = tested on: CD19+ BV173 tumor cell line; test: Co-culture / stimulation with CD19+ BV173 tumor cells; type: cell-based, human
Description: (§1) For activation of CD19-specific CAR-T cells with the anti-idiotype Ab or CD19^+ tumor cells, anti-CAR19 and anti-CD3 Abs were serially diluted 2-fold, and coated on non-tissue culture treated 96-well plates for 16 hours. Plates were washed twice before plating T cells (2.5×10^5 cells/well). Plates were centrifuged at 1,000 g for 5 min, and incubated at 37° C. for 6 hours. Plates were then briefly spun, and 200 μl of the supernatant was collected for ELISA. Cells were collected and stained with anti-CAR19, CD4-PE, CD69-FITC Abs and Zombie Aqua™ dye (Biolegend) at 4° C. for 30 min. Samples were fixed and stored for flow cytometry analysis. For tumor cell-mediated activation, 5×10^4 BV173 tumor cells were seeded in each well of 96-well plates, and T cells were serially diluted and seeded. Six hours later, supernatant was collected for ELISA.
(§2) Cytokines in culture supernatants and plasma were measured using enzyme-linked immunosorbent assay (ELISA) or magnetic luminex assay following manufacturer's instructions (R&D Systems). Data were collected and analyzed using the Lumina-200 System and the Bio-Plex Manager 6.1 software (Bio-Rad).
For co-culture assays, CD19^+ BV173 tumor cells were seeded into 24-well plates with 5×10^5 cells/well and T cells were added at different effector to target (E:T) ratios (E:T=1:1 or 1:5). After 24 hours, supernatant was collected for ELISA. Three days later, cells were collected and stained with anti-human CD3 and CD19 Abs for flow cytometry analysis.

[3] = tested on: Daudi-FFLuc cells; test: NSG xenograft lymphoma model of SHP1 heterodimerization; type: in vivo, NSG mice
Description: Animal studies were performed in accordance with the Institutional Animal Care and Use Committee of UNC. For long-term in vivo cytotoxicity, male or female NSG (NOD-scid IL2Rg^null) mice were injected intravenously (i.v.) with 2×10^6 CD19^+ Daudi tumor cell line labeled with the Firefly luciferase gene (Daudi-FFLuc). Four to seven days later, mice received T cells control or expressing CARs intravenously (i.v.). For tumor re-challenging experiments, 2×10^6 CD19^+ Daudi-FFLuc cells were i.v. injected at indicated time point. Tumor growth was monitored every 2-3 days by injecting mice intraperitoneally (i.p.) with D-luciferin (150 mg/kg, Xenolight, PerkinElmer). Photon emission was analyzed using the Xenogen-IVIS Imaging System. For short-term in vivo T cell activation, NSG mice were injected with Daudi-FFLuc cells i.v. Two weeks later, CAR19.28ζ-Ts were labeled with Cell-trace Violet (Thermo Scientific) and CAR19.BBζ-Ts were labeled with CFSE (Thermo Scientific) as per manufacturer's instructions. Cells were mixed 1:1, and a total 1×10^7 cells were i.v. injected in each mouse. Peripheral blood, bone marrow, lung and spleen were harvested 6 hours after T cell injection, dissociated into single cells and stained with anti-human CD45-PE, CD3-APC and CD69-PE-Cy7 Abs. […] Tumor growth was monitored twice a week.

[4] = Humanized mouse CRS model of SHP1 heterodimerization; type: in vivo, humanized NSG mice
Description: For the humanized mouse model to evaluate the effects of SHP1 heterodimerization in CAR-T cells in vivo, humanized NSG (NOD-scid IL2Rg^null) mice (NSG-hu HSC) were generated. Briefly, human fetal liver tissues were obtained from elective or medically indicated termination of pregnancy through a non-profit intermediary working with outpatient clinics (Advanced Bioscience Resources). CD34^+ hematopoietic stem cells (HSC) were transplanted in newborn NSG mice through intra-liver injection of 2×10^5 purified HSC. Human immune cell engraftment was detected by flow cytometry 12 weeks after transplantation. Standard parameters of evaluation of CRS in humanized NSG mice was performed. Mice were infused with 5×10^6 CAR-T cells at day 0, and plasma was collected at days 1 and 2. AP21967 was administrated intraperitoneally at 10 mg/kg dose. Weight of each mouse was normalized to starting weight before CAR-T cell infusion. In a second CRS murine model, 7-10-week-old female C.B-Igh-1b/GbmsTac-Prkdc^scid-Lyst^bgN7 (SCID-beige, Taconic Biosciences) mice were injected i.p. with Raji-FFluc cells. After 21 days, mice were grouped based on the BLI (total flux). Mice were infused i.p. with 30×10^6 CAR-T cells. Weight of each mouse was normalized to starting weight before CAR-T cell infusion.

[5] = tested on: CD69 expression and cytokine release of CAR-T cells; test: Activation of CAR-T cells with anti-CAR19 anti-idiotype Ab (CD69 expression, cytokine release); type: cell-based, human
Description: as §1, §2

[6] = tested on: Ca2+ influx in CAR-T cells; test: Ca2+ influx assay after anti-CAR19 Ab stimulation; type: cell-based, human; conditions: stimulated with α-CAR19 antibody; FIG. 6
Description: For Ca^2+ influx assays, T cells were incubated with Ca^2+ indicator as per manufacturer's instructions (Ca^2+ influx assay, BD Bioscience). Cells were incubated with anti-CAR19 Ab followed by goat anti-mouse secondary Ab on ice. Ca^2+ current was measured by flow cytometry for time-lapsed fluorescence change. Cells were first collected on ice as the baseline of the Ca^2+ current, and then activated at 37° C. for the Ca^2+ current during T cell activation.

[7] = transient AP21967, FIGS. 21B-21C

Q: What does the source list for `CO[C@H]1[C@@H](O)[C@H](C)C[C@H](C)/C=C/C=C/C=C(\C)[C@@H](c2c[nH]c3c(C)cccc23)C[C@@H]2CC[C@@H](C)[C@@](O)(O2)C(=O)C(=O)N2CCCC[C@H]2C(=O)O[C@H]([C@H](C)C[C@@H]2CC[C@@H](O)[C@H](OC)C2)C[C@H](O)[C@H](C)/C=C(\C)[C@H]1O` [AP21967]?
A: CAR-CD3ζ phosphorylation upon antigen binding ([1]; CAR19.28ζ.FRB-T cells co-transduced with FKBP-SHP1, 1 μM AP21967, FIG. 16): tunes down CAR-CD3ζ phosphorylation upon antigen binding; Antigen-independent CAR-CD3ζ phosphorylation of CAR19.28ζ-Ts ([1]; FKBP-SHP1 co-expressed, FIG. 16): reduce antigen-independent CAR-CD3ζ phosphorylation; Antitumor activity in vitro ([2]; CAR19.28ζ-T cells with FKBP-SHP1, BV173 co-culture): without compromising their antitumor activity in vitro; IFNγ release / production ([2]; CAR19.28ζ.FRB-T cells with FKBP-SHP1 and BV173 at 1:5 ratio, FIGS. 17 and 18): reduces IFNγ release by CAR19.28ζ-T cells in a reversible manner; also recorded: reversible regulation of IFNγ production; Cytotoxicity ([2]; FKBP-SHP1 co-expressed, FIG. 17): controlled cytotoxicity; IFNγ release in vivo (plasma) ([3]; AP21967 twice on day 2, 10 mg/kg intraperitoneally, FIG. 20A): reduced IFNγ release by CAR19.28ζ-T cells co-expressing SHP1; Antitumor effects in vivo ([3]; AP21967 twice on day 2, tumor growth days 7-39, FIG. 20B): without impairing their antitumor effects; Weight loss ([4]; AP21967 twice on day 1, 10 mg/kg intraperitoneally, FIG. 21A): alleviated their weight loss; Therapeutic effect of CAR19.28ζ-T cells in vivo ([4]; cell counts on day 21, FIG. 21D): did not impair the therapeutic effect; Release in the plasma of human GM-CSF [4, 7]: significantly reduced; Release in the plasma of human IFNγ [4, 7]: significantly reduced; Release in the plasma of human IL-6 [4, 7]: significantly reduced; Release in the plasma of human TNFα [4, 7]: significantly reduced

Q: With `[Na+].[Na+].[Na+].[O]=[V]([O-])([O-])[O-]` [Na3 VO4] as the compound, how does the “Antigen-independent phosphorylation of CAR-CD3ζ in CAR19.BBζ-T cells” value ([1]; 200 μM phosphatase inhibitor, FIG. 2E) read?
A: Its value is “promoted”.

Q: Which results are given for `CC(C)(C)n1nc(-c2ccc(Cl)cc2)c2c(N)ncnc21` [PP2]?
A: Responsiveness of CAR19.28ζ-T cells to CAR crosslinking (CD69, IFNγ and IL-2) after PP2 pretreatment ([5]; 10 μM PP2 for 16 hours, low doses of anti-CAR19 antibody, FIG. 2B): reduced their responsiveness to CAR crosslinking with low doses of anti-CAR19 antibody to similar levels of CAR19.BBζ-T cells; PP2-mediated inhibition in CAR19.28ζ-T cells at high doses of anti-CAR19 antibody ([5]; 10 μM PP2 pretreatment, high doses of anti-CAR19 antibody): partially overcame; CAR-CD3ζ basal phosphorylation of CAR19.28ζ-T cells on addition of kinase inhibitor ([1]; inhibitor at 10 μM for 16 hours, FIG. 2A): abrogated

Q: For CD8α-wt: wild type CD8α, which “Basal CAR-CD3ζ phosphorylation in CD4+ T cells co-expressing CAR.19.BK” value ([1]; co-expression of CD8α construct, FIG. 2D top) is on record?
A: The value was “increased”.

Q: For “LCK: full-length human LCK, FLAG-tagged, overexpressed in CAR-T cells”, which “Ca2+ influx with LCK overexpression” value [6] is on record?
A: Its value is “increasing; also recorded: correspondingly increased”.

Q: What about the “CAR-CD3ζ phosphorylation in CAR19.28ζ-Ts with LCK overexpression” value ([1]; FIG. 5) of the same compound?
A: Its value is “enhanced”.

Q: What about the “Basal CAR-CD3ζ phosphorylation in CAR19.BBζ-T cells with LCK overexpression” value ([1]; day 10 of in vitro expansion, three donors, FIG. 5) of the same compound?
A: The value was “increasing; also recorded: dramatically increased CAR-CD3ζ phosphorylation of CAR19.BBζ to a comparable level as CAR19.28ζ”.
